Patent publication US11628160B2, “Compositions and methods for treating brain injury” (Azevan Pharmaceuticals, Inc., priority 2017, dated 2023)

How the values were obtained:
Male Sprague Dawley rats [1] = test: Resting state functional connectivity (fMRI); assay type: in vivo, rat; details: Treatment group
Description: EXAMPLE. Resting state functional connectivity. Resting-state fMRI scan is collected using spin-echo triple-shot EPI sequence (imaging parameters: matrix size=96×96×20, TR/TE=3000/15 msec, voxel size=[…], slice thickness=1 mm. Preprocessing is illustratively accomplished by combining Analysis of Functional NeuroImages (AFNI_17.1.12, http://afni.nimh.nih.gov/afni/), FMRIB Software library (FSL, v5.0.9, http://fsl.fmrib.ox.ac.uk/fsl/), Deformable Registration via Attribute Matching and Mutual-Saliency Weighting (DRAMMS 1.4.1, https://www.cbica.upenn.edu/sbia/software/dramms/index.html) and MATLAB (Mathworks, Natick, Mass.). Brain tissue masks for resting-state functional images are manually drawn using 3DSlicer (https://www.slicer.org/) and applied for skull-stripping. Normalization is completed by registering functional data to the MRI Rat Brain Template (Ekam Solutions LLC, Boston, Mass.) using affine registration through DRAMMS. The region-to-region functional connectivity method is illustratively performed to measure the correlations in spontaneous BOLD fluctuations. A network is comprised of nodes and edges; nodes being the brain region of interest (ROI) and edges being the connections between regions. Nodes are defined using the ROIs segmented from an appropriate MRI RAT Brain Atlas. Illustratively, 171 nodes are defined. Voxel time series data are averaged in each node based on the residual images using the nuisance regression procedure. Pearson's correlation coefficients across all pairs of nodes (14535 pairs for 171 nodes) are computed for each subject among all three groups to assess the interregional temporal correlations. The r-values (ranging from −1 to 1) are z-transformed using the Fisher's Z transform to improve normality. For 171 nodes, 171×171 symmetric connectivity matrices are constructed with each entry representing the strength of edge. Group-level analysis is performed to look at the functional connectivity in controls, one hit and three hit groups. The resulting Z-score matrices from one-group t-tests are clustered using the K-nearest neighbors clustering method to identify how nodes cluster together and form resting state networks. A Z-score threshold of |Z|=2.3 is applied to remove spurious or weak node connections for visualization purposes.
Beginning on postnatal (P)70, animals are divided into 3 groups (n=6-7/group; Sham Control Group (Control, CG), Injury Group (IG), and Treatment Group (TG) and begin their head impact, and drug regimens. All groups are anaesthetized with 4% isoflurane in oxygen, and Injury group and Treatment group receive the first of two total head impacts) using a custom setup from Animal Imaging Research (AIR; Holden, Mass.) on P70. […]

Male Sprague Dawley rats [2] = test: Edema and ventricular volumes (T2 relaxometry MRI); assay type: in vivo, rat; details: Treatment group; no significant difference to Control group
Experimental: EXAMPLE. T2 Relaxometry measurement of edema. MRI was conducted 24-28 days after the injury to characterize edematous volume in the lateral ventricles using T2 relaxometry. The time of imaging was based on the rat model used for TBI assessment by Charles River. Images are acquired using a multi-slice multi-echo (MSME) pulse sequence. The echo time (TE) is illustratively 11 ms, and 16 echoes are acquired during imaging with a recovery time (TR) of 2500 ms. Images are acquired with a field of view [FOV] 3 cm^2, data matrix=256×256×20 slices, thickness=1 mm. Values for […] relaxation time (T2) are obtained from all the slices using ParaVison 5.1 software. T2 is used to characterize the edematous volume in the lateral ventricle. The T2 values are used for segmentation and quantification of the ventricle volume. The T2 values are computed using the equation; y=A+Cexp (−t/T2) (S.D. weighted) obtained from the Paravision 5.1 software, where, A=absolute bias, C=signal intensity, t=echo time and T2=spin-spin relaxation time. The ventricle is identified as a hyperintensity on the T2 map over three 1 mm sections. The volume is calculated using a snake region growth algorithm in itk-SNAP (www.itksnap.org). The threshold is illustratively set at 6300 to 9000 as absolute pixel intensity. A point is seeded within the ventricle and the algorithm run until segmentation is complete. […]

C[C@@H](NC(=O)[C@@H](CC(=O)N1CCC(N2CCCCC2)CC1)N1C(=O)[C@@H](N2C(=O)OC[C@@H]2c2ccccc2)[C@H]1/C=C/c1cccc(I)c1)c1ccccc1 [Example 266]
connectivity of hippocampus, Area M (Male Sprague Dawley rats [1]): hyperconnectivity compared to Injury group and Control group
connectivity of ventral hippocampus, Area G (Male Sprague Dawley rats [1]): hyperconnectivity compared to Injury group and Control group
functional connectivity in network circuitry associated with learning, cognition, memory, and attention (Male Sprague Dawley rats [1]; even compared to Control group): enhanced functional connectivity
resting state functional connectivity network (Male Sprague Dawley rats [1]; 166 brain areas): hyperconnectivity
volume of lateral ventricles at the level of impact (Male Sprague Dawley rats [2]): ventricular volume returns to normal levels
